Data on 18 compounds can be found in US20020016346A1, “Method for enhancing outflow of aqueous humor in treatment of glaucoma” (The Regents University of California, a California …, priority 1994, published 2002).

Where two headings read alike, the source gives them in different places.

Broadly, the IC50 is the concentration needed to halve the response being measured. For orientation: logP means a log measure of how a compound divides between an organic and an aqueous phase. A lower logP goes with a more hydrophilic compound.

For series [1], the target named is T1, Na+2Cl−K+ co-transporter (Oryctolagus cuniculus, UniProt P55015).
T1 construct: cotransporter system found in the cortical thick ascending limbs of the loop of Henle of mammals; from tissue; host or cells: dissected, perfused cortical thick ascending limb tubules of rabbit kidney
T1 sequence (P55015 1-1099): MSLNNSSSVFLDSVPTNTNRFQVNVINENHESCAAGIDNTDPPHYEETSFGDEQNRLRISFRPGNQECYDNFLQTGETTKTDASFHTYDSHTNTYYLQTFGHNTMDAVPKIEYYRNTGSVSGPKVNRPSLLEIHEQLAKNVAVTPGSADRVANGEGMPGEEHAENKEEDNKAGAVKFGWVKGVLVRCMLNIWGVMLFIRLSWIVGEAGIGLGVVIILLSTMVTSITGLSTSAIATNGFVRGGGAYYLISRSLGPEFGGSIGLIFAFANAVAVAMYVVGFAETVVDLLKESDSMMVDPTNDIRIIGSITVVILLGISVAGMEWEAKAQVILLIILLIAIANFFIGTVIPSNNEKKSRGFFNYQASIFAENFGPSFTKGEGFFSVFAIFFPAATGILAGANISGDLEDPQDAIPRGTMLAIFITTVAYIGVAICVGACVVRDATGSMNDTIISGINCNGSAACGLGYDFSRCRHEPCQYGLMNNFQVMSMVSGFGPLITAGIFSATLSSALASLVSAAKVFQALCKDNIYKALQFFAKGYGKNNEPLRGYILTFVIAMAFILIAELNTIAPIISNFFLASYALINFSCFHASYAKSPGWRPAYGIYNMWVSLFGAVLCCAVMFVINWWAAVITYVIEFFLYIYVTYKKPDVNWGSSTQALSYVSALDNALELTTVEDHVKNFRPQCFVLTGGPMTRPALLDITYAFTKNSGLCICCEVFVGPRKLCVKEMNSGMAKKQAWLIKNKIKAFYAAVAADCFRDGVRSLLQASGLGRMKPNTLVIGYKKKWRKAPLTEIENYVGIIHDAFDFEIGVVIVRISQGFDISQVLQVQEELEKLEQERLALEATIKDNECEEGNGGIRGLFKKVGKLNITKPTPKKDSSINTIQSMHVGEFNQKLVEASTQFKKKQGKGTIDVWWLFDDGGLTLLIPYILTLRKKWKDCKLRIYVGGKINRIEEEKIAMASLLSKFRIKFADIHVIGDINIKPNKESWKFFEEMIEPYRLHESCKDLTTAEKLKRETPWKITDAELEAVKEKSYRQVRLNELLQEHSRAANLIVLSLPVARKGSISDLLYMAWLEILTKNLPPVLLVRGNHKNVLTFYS
The series can be described thus: Inhibition of short circuit current in perfused cortical thick ascending limb of the loop of Henle. The class given is cell-based, rabbit. The note with it: concentration blocking 50% of short circuit current. The source says:
B. Burg et al. (Am J. Physiol. 210:1293-1298, 1966) as modified by […] Arch. 390:30-37, 1981) and […] et al. (Pflüger's Arch. 389:175-176, 1981), both of which are incorporated herein by reference in their entireties. In brief, this in vitro test uses the Na-2Cl^- K^+ cotransporter system found in the cortical thick ascending limbs of the loop of Henle of mammals, particularly rabbits, for example, female white New Zealand rabbits. The tubules are dissected and perfused according to the known techniques, but with the rate of perfusion through the lumen kept high (10-20 nl/min) to prevent changes in the ionic composition of the perfusate along the perfused tubule. As control perfusate, a solution containing (mM): NaCl 145; […] KH2PO4 0.4; MgCl2 1; Ca gluconate 1.3; and glucose 5 is used on both sides of the epithelium with pH adjusted to 7.4 The transepithelial potential (Vtc) is recorded continuously on both ends of the tubule. […] The ratio of both values ([…] the equivalent short circuit current Itc. There is a direct relationship between the decrease of Itc and the inhibition of the Na^+2Cl^-K^+ co-transporter by contact with the test compound ([…] et al., Klin. Wochenschr. 61:1019-1027, 1983). For each drug under study, dose-response curves are established by adding compounds at various concentrations to the luminal perfusate with at least three determinations for each concentration. […] Details of this method have been published previously in M. E. O'Donnell, J. Biol. Chem. 264:11559-11566, 1991, which is incorporated herein by reference in its entirety. An illustration of the use of this method is found in Example 1B of this application.

A short description of series [2]: Lipophilicity (log P′), n-octanol/phosphate buffer pH 7.4 shake-flask or RP-HPLC. The class given is physicochemical. As for the experimental part:
The lipophilicity of a compound is expressed in terms of an octanol:water coefficient determined by the standard technique of radiolabelling the compound and introducing a small amount into equal volumes of octanol and tris buffer (50 mM, pH 7.4). Generally the lipophilicity (log P′) is expressed as the logarithm of the partition coefficient in n-octanol/phosphate buffer, pH 7.4 using the well known shake-flask method as described by Cloux, et al., J. Pharm. Belg., 43:141-151, 1973, which is incorporated herein by reference in its entirety. The coefficient of lipophilicity (log P′) of the compounds useful for topical application to decrease intra-ocular pressure is preferably at least 0.005, and more preferably at least 0.01.
The lipophilicity of the aqueous humor outflow-increasing compounds of this invention can also be determined using a reversed phase, high performance liquid chromatograph (RP-HPLC) system for determination of the log P′ of the drug as described in B. Masereel, et al. (J. Pharm. Pharmacol. 44:589-593, 1992), which is incorporated herein by reference in its entirety. Briefly, a reversed phase column (RP-18) is equilibrated with n-propanol/phosphate buffer, pH 7.4 at a ratio of 30:70). Compounds to be tested are dissolved and eluted with the same solution. A series of standards with a wide range of lipophilicity, as determined by the shake-flask method, is run and a calibration curve is established for each session. KNO3 is injected to determine the void volume and […] is determined, wherein tr is the drug retention time andot is the retention time of NO3-. Calibration curves are calculated using log P′ and log k′ values. Log P′ values of other compounds are obtained by interpolation of the standard curves.

The target of series [3] is T2, Na—K—Cl cotransport (Bos taurus, UniProt F1MS08).
T2 sequence (F1MS08 1-1204): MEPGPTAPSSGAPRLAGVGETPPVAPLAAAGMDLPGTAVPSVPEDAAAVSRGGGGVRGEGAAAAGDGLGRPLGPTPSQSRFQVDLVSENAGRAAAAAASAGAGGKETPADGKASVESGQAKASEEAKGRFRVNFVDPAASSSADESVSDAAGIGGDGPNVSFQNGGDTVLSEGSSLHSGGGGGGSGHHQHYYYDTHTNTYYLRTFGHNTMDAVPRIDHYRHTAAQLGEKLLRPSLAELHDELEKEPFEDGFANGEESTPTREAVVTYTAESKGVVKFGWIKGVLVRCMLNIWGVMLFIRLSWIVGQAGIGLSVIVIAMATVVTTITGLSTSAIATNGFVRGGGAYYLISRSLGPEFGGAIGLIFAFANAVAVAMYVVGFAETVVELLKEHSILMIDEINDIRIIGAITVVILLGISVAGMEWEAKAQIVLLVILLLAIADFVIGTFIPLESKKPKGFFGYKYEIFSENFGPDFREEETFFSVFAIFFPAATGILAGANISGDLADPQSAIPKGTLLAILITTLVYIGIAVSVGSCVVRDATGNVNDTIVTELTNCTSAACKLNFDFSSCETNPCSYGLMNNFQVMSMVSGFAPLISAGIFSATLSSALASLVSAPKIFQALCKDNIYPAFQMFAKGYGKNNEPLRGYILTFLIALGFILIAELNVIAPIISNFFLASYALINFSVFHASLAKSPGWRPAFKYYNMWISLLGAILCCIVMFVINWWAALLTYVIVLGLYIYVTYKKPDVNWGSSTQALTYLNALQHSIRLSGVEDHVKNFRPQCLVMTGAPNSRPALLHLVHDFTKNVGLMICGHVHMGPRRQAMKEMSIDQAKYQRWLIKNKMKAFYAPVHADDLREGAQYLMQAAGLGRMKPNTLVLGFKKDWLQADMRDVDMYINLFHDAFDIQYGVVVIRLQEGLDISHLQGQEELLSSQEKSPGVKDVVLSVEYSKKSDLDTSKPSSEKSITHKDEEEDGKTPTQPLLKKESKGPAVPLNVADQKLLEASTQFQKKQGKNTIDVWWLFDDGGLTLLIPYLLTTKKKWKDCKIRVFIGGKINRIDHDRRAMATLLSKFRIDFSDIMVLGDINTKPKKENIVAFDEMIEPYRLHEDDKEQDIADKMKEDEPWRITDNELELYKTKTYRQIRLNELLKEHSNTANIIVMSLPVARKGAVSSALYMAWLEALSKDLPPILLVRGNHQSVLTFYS
Description: K influx (86Rb) in bovine TM cell monolayers. The class given is cell-based. The note with it: bovine TM cells; VP 100 nM, NE 10 μM, Ach 1 μM, cAMP 50 μM, cGMP 50 μM, A23187 1 μM, PMA 10 nM, Ca-free medium plus 5 μM BAPTA-AM; control 25.6 ± 0.71. As to the method: Details of this method have been published previously (O'Donnell, M. E., supra, 1989). Briefly, bovine or human TM cell monolayers on 24 well plates were equilibrated for 10 minutes at 37° C. in a Hepes-buffered minimal essential medium (MEM) containing (in mM): 144 Na, 147 Cl, 5.8 K, 1.2 Ca, 4.2 HCO3, 0.4 H2PO4, […], 0.4 SO4, 5.6 glucose and 20 Hepes. […] The assay medium also contained ^86Rb (1 μCi/ml) (Dupont New England Nuclear, Boston, Mass.). The assay was terminated by rinsing the wells with ice-cold isotonic MgCl2, then extracting the contents with 0.2% sodium dodecyl sulfate (SDS), and determining the amount of radioactive contents by liquid scintillation. Osmolarities of all preincubation and assay media were verified by osmometry (Model 3W2, Advanced Instruments, Norwood, Mass.).
The effects of hormones, neurotransmitters and second messengers on Bumetanide-sensitive K influx of bovine trabecular meshwork cells were assessed using the procedures of Example 1. […] The control is the Hepes-buffered medium containing Na, K, Cl, CA and other ions as described in Example 1B. […] The data represent the mean values±SEM of quadruplicate determinations from two experiments.

`O=C(NC1CCCCCC1)NS(=O)(=O)c1cnccc1NC1CCCCCCC1` [Compound 14]: the IC50 in series [1] (read-out: IC50) stood at 2000 nM. The logP in series [2] worked out at 2.45.
On to `O=C(NS(=O)(=O)c1cnccc1NC1CCCCC1)N1CCCCC1` [Compound 21], for which, in series [1] (read-out: IC50), the half-inhibitory concentration (IC50) stood at 320 nM. The compound also registered a log partition coefficient (logP) in series [2] of 0.62.
For the compound `NC(=O)CC[C@@H]1NC(=O)[C@H](Cc2ccccc2)NC(=O)[C@H](Cc2ccc(O)cc2)NC(=O)[C@@H](N)CSSC[C@@H](C(=O)N2CCC[C@H]2C(=O)N[C@@H](CCCN=C(N)N)C(=O)NCC(N)=O)NC(=O)[C@H](CC(N)=O)NC1=O` [VP, vasopressin], the “BUMETANIDE-SENSITIVE K INFLUX” value in series [3] is reported as 40.4 ± 1.05 μmol/g protein/min.
As for `Cc1cccc(Nc2ccncc2S(=O)(=O)NC(=O)NC(C)C)c1` [Compound 7], the IC50 in series [1] (read-out: IC50) came out at 200 nM. The compound also had a logP in series [2] of 0.45.
The like results for `O=C(NS(=O)(=O)c1cnccc1NC1CCCCCC1)N1CCCCC1` [Compound 22] were, in that order, 250 nM and 1.24.
Take `O=C(NC1CCCCC1)NS(=O)(=O)c1cnccc1NC1CCCCCCCCCCC1` [Compound 18]: the figures for the IC50 entry in series [1] and in series [1] (read-out: IC50) were “inactive” and above 100000 nM, respectively. The compound also registered a log partition coefficient (logP) in series [2] of 3.45.
As for `O=C(NC1CCCCCCC1)NS(=O)(=O)c1cnccc1NC1CCCCCCC1` [Compound 17], the IC50 in series [1] (read-out: IC50) was 560 nM. Besides, in series [2], the lipophilicity (logP) worked out at 2.7.
In the case of `O=C(NS(=O)(=O)c1cnccc1NC1CCCCCCC1)N1CCCCC1` [Compound 23], the IC50 in series [1] (read-out: IC50) came to 150 nM. Further, in series [2], the logP came out at 1.65.
On to `O=C(NC1CCCCCC1)NS(=O)(=O)c1cnccc1NC1CCCCC1` [Compound 12], for which the IC50 in series [1] (read-out: IC50) worked out at 9500 nM. This compound had a lipophilicity (logP) in series [2] of 1.72.
With `O=C(NC1CCCCCCC1)NS(=O)(=O)c1cnccc1NC1CCCCCC1` [Compound 16], the concentration for half-maximal inhibition (IC50) in series [1] (read-out: IC50) worked out at 1700 nM. Further, in series [2], the lipophilicity (logP) amounted to 2.44.
As for `O=S(=O)(NC(=S)NC1CCCCC1)c1cnccc1NC1CCCCCC1` [Compound 20], in series [1] (read-out: IC50), the IC50 came to 790 nM. The logP in series [2] worked out at 1.79.
For `O=C(NC1CCCCC1)NS(=O)(=O)c1cnccc1NC1CCCCC1` [Compound 9], the IC50 in series [1] (read-out: IC50) came out at 19000 nM. The same compound showed a logP in series [2] of 1.33.
Regarding `O=C(NC1CCCCC1)NS(=O)(=O)c1cnccc1NC1CCCCCCC1` [Compound 11], the half-maximal inhibitory concentration (IC50) in series [1] (read-out: IC50) is 470 nM. Also, in series [2], the logP amounted to 2.05.
In the same order, the values of `O=C(NC1CCCCC1)NS(=O)(=O)c1cnccc1NC1CCCCCC1` [Compound 10] are 3500 nM and 1.67.
Consider `O=C(NC1CCCCCC1)NS(=O)(=O)c1cnccc1NC1CCCCCC1` [Compound 13], for which the half-inhibitory concentration (IC50) in series [1] (read-out: IC50) was 2800 nM. The logP in series [2] is 2.06.
As for `O=C(NC1CCCCCCC1)NS(=O)(=O)c1cnccc1NC1CCCCC1` [Compound 15], the IC50 in series [1] (read-out: IC50) was 1400 nM. Further, the logP in series [2] turned out to be 2.07.
The like results for `CC(C)NC(=S)NS(=O)(=O)c1cnccc1NC1CCCCCC1` [Compound 19] were, in that order, 1300 nM and 0.96.
Turning to `CC(C)NC(=O)NS(=O)(=O)c1cnccc1NC1CCCCC1` [Compound 8], in series [1] (read-out: IC50), the concentration for half-maximal inhibition (IC50) came to 700 nM. Further, the logP in series [2] is 0.58.
